Experimental data published in US20060292683A1, “Cross-beta structures on microbial organisms” (Crossbeta Biosciences B.V., priority 2005, published 2006).

Columns and labels:
S. aureus Newman [1] = test: Binding of dyes to S. aureus Newman by visual inspection; parameters: species or system Staphylococcus aureus; details: S. aureus Newman after incubation with Thioflavin T, Congo red, tPA and IgIV
Protocol: (§1) Staphylococcus aureus Newman, which was a kind gift of Dr. Jos van Strijp and Dr Kok van Kessel (Dept. of Microbiology, University Medical Center Utrecht, the Netherlands) was plated on a blood plate from a stock stored at −70° C., and incubated overnight at 37° C. The plate was stored at 4° C. Escherichia coli strain TOP10 (Invitrogen, 44-0301) was plated on agar with Luria broth medium from a −80° C. glycerol stock, and incubated overnight at 37° C. The plate was stored at 4° C. Overnight cultures of 5 ml in Luria broth medium were grown at 37° C. with vigorous shaking and aeration, by streaking a single colony with the tip of a pipet and transferring the tip to the medium in a 15-ml tube. The cell density in overnight cultures was determined by measuring the absorbance at 600 nm (A600=1 is equivalent with 0.8×10^9 cells/ml). Cells were pelleted by centrifugation for one minute at 16,000*g or for ten minutes at 3,000*g. Medium was discarded. One half of the cells were resuspended in PBS in 1/10 of the original medium volume (10× concentration of the cells) by pipetting and swirling. These cells were used as reference cells. […]
(§2) Binding of cross-beta structure binding compounds to E. coli TOP10 and S. aureus Newman after incubation of the bacteria with Thioflavin T, Congo red, tPA and IgIV, as described in the Materials & Methods section, was determined in two ways. […]

Escherichia coli TOP10 = test: ROS production by bEnd.3 endothelial cells upon exposure to E. coli TOP10; type: cell-based; details: 8.1×10^7 E. coli cells/ml with either 1.25 mg/ml IgIV, 0.8 mg/ml finger domains, 220 μM Congo red, 220 μM ThT or 1.1 μM tPA
From the text: (§3) Glycated proteins comprising a cross-beta structure and amyloid-β induce inflammatory responses and are believed to contribute to the pathogenesis of certain protein misfolding diseases (diabetes type II, Alzheimer's disease). In general, misfolded proteins induce cellular dysfunction with enhanced expression or activation of inflammatory signals. The effect of misfolded proteins on endothelial cell (dys)function is, for example, measured by determining the levels of reactive oxygen species or nitric oxide or tissue factor in response to misfolded proteins. Human umbilical vein endothelial cells (HUVEC) that are isolated and cultured, according to standard protocols, are used, or other endothelial cells such as the murine microvascular bEnd.3 endothelial cell line. The levels of reactive oxygen species (ROS), like, for example, nitric oxide, are monitored using fluorescent probes, such as CM-H2DCF-DA. Alternatively, cell viability is monitored by standard MTT-assay. The levels of tissue factor expression is determined using a chromogenic assay with purified factor VII, purified factor X and chromogenic substrate S-2765 (Chromogenix), using cell lysates. For example, bEnd.3 cells are seeded at 120,000 cells/well of a 96-well culture dish, and cultured overnight. […]
(§4) To assess production of reactive oxygen species by cultured mouse microvascular bEnd.3 endothelial cells (ECs), cells are seeded at 128,000 cells/well of a 96-well plate (Costar, 3904). […] For the analysis of ROS production, 10 μl of tester samples and controls are added to separate wells, and fluorescence is measured every two minutes for 70 minutes upon excitation at 488 nm with the emission wavelength set to 538 nm. […]

S. aureus Newman [2] = test: ROS production by bEnd.3 endothelial cells upon exposure to S. aureus Newman; type: cell-based, Staphylococcus aureus; details: 1.13×10^8 S. aureus cells/ml with either 1.25 mg/ml IgIV, 0.8 mg/ml finger domains, 220 μM Congo red, 220 μM ThT or 1.1 μM tPA
From the text: as §3, §4

E. coli TOP10 = test: Binding of dyes to E. coli TOP10 by visual inspection; parameters: species or system Escherichia coli; details: E. coli TOP10 after incubation with Thioflavin T, Congo red, tPA and IgIV
Protocol: as §1, §2

[3] = test system: protein and peptide aggregates with cross-β structure conformation; test: ELISA binding to immobilized peptides with cross-β structure conformation; details: immobilized Aβ, FP13, TTR11, LAM12 or IAPP; GST-tagged F domains
From the text: FIG. 2: Binding of tPA, factor XII, fibronectin and finger domains thereof to compounds with cross-β structure. Panels A-C: Full-length purified tPA (Panel A), factor XII (Panel B) and fibronectin (Panel C) bind to immobilized peptides with cross-β structure conformation, in an ELISA.
Previously, we established that tissue-type plasminogen activator specifically interacts with protein and peptide aggregates that comprise a cross-β structure conformation, a structural element found in amyloid-like polypeptide assemblies (Bouma et al., 2003; Kranenburg et al., 2002). Now, we expanded this analysis to other proteins that resemble tPA domain architecture and we separated domains of tPA. Binding of full-length tPA, factor XII and fibronectin, as well as of fibronectin type I (finger, F) domains of tPA and factor XII and F4-5 of fibronectin, to protein and peptide aggregates with cross-β structure conformation was analyzed in an ELISA. […] Binding of tPA and factor XII was established for immobilized amyloid-β(1-40) (Aβ) with amyloid-like properties, fibrin peptide FP13, that encompasses the tPA activating sequence 148KRLEVDIDIKIR160 (SEQ ID NO:——————) of the fibrin α-chain, TTR11, which is an 11 amino-acid residues peptide from transthyretin that forms cross-β structure, and LAM12, which is a 12 amino-acid residues peptide from laminin that forms cross-β structure (FIG. 2, Panels A and B). Negative controls were freshly dissolved, monomerized Aβ and non-amyloid murine islet amyloid polypeptide (mIAPP). For fibronectin, human amyloid IAPP is depicted instead of LAM12 (FIG. 2, Panel C).

Row | Molecule | binding of dye to bacterium cells, visual inspection (S. aureus Newman [1]) | effect on ROS production by bEnd.3 ECs, co-incubation (Escherichia coli TOP10) | effect on ROS production by bEnd.3 ECs, co-incubation (S. aureus Newman [2]) | binding of dye to bacterium cells, visual inspection (E. coli TOP10) | binding to cross-β structure rich compounds in ELISA [3]
1 | Nc1c(/N=N/c2ccc(-c3ccc(/N=N/c4cc(S(=O)(=O)O)c5ccccc5c4N)cc3)cc2)cc(S(=O)(=O)O)c2ccccc12 [Congo red] | intense red | reverse ROS production | strongly inhibits ROS expression |  | 
2 | Cc1ccc2c(c1)sc(-c1ccc(N(C)C)cc1)[n+]2C.[Cl-] [Thioflavin T] |  | to some extent | slightly decrease ROS production | bound to the cells | 
3 | fibronectin F4-5: recombinant fibronectin type I domains 4-5 of fibronectin with carboxy terminal GST-tag |  |  |  |  | bind specifically
4 | fibronectin: full-length purified fibronectin |  |  |  |  | bind specifically
5 | tPA: tissue-type plasminogen activator (Actilyse, Boehringer-Ingelheim) |  | not able to reduce ROS production | does not influence S. aureus induced ROS production |  | bind specifically
6 | factor XII: full-length purified factor XII (protein, UniProt P00748 1-615, looked up, full-length) MRALLLLGFLLVSLESTLSIPPWEAPKEHKYKAEEHTVVLTVTGEPCHFPFQYHRQLYHKCTHKGRPGPQPWCATTPNFDQDQRWGYCLEPKKVKDHCSKHSPCQKGGTCVNMPSGPHCLCPQHLTGNHCQKEKCFEPQLLRFFHKNEIWYRTEQAAVARCQCKGPDAHCQRLASQACRTNPCLHGGRCLEVEGHRLCHCPVGYTGAFCDVDTKASCYDGRGLSYRGLARTTLSGAPCQPWASEATYRNVTAEQARNWGLGGHAFCRNPDNDIRPWCFVLNRDRLSWEYCDLAQCQTPTQAAPPTPVSPRLHVPLMPAQPAPPKPQPTTRTPPQSQTPGALPAKREQPPSLTRNGPLSCGQRLRKSLSSMTRVVGGLVALRGAHPYIAALYWGHSFCAGSLIAPCWVLTAAHCLQDRPAPEDLTVVLGQERRNHSCEPCQTLAVRSYRLHEAFSPVSYQHDLALLRLQEDADGSCALLSPYVQPVCLPSGAARPSETTLCQVAGWGHQFEGAEEYASFLQEAQVPFLSLERCSAPDVHGSSILPGMLCAGFLEGGTDACQGDSGGPLVCEDQAAERRLTLQGIISWGSGCGDRNKPGVYTDVAYYLAWIREHTVS |  |  |  |  | bind specifically
